Measurements: patent US10799433B2, “Foaming antimicrobial compositions” (S.C. Johnson & Son, Inc., priority 2016, dated 2020)

Test system: C. albicans 10231
Assay: Skin conditioner impact on antimicrobial efficacy
Assay type: cell-based, Candida albicans
Conditions: skin conditioner added to prototype composition
From the text: FIG. 6 is a bar graph showing the effect on the antimicrobial efficacy (average log reduction of C. albicans 10231) for three prototype antimicrobial compositions sharing all the same ingredients but differing in the amount of added PEG-45 palm kernel glycerides (ranging from 0 to 1.0%) in comparison to a commercial antimicrobial soap (ECOLAB Equi-Soft™ soap).

## PEG-45 palm kernel glycerides
  impact on the efficacy: negative impact
